Reference: patent publication US12448382B2, “Heterocyclic compounds for mediating tyrosine kinase 2 activity” (GUANGZHOU INNOCARE PHARMA TECH CO., LTD., priority 2019, dated 2025)

Tests used:
[1] = target: T1, human recombinant JAK2 protein (Homo sapiens, UniProt O60674); experiment: JAK2 Inhibition Assay (HTRF kinase assay); format: biochemical; settings: human recombinant JAK2, 2.5 μM ATP substrate solution
T1 construct: purchased Carna Biosciences 08-045
Outline: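 Recombinant human JAK2 was preincubated 15 min at room temperature with compound in buffer containing 5 mM MgCl2, 1 mM DTT and 0.01% Brij35. Substrate solution (2.5 μM ATP, 0.25 μM biotinylated TK substrate) was then added for 30 min. Phosphorylation was detected by HTRF (665/620 nm ratio; no-enzyme = 100% inhibition), and IC50 was fitted from an 8-point, 4-fold series.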

[2] = system: IL-12-induced IFN-γ secretion in NK92 cells; experiment: Inhibition of IL-12-induced IFN-γ Secretion in NK92 Cells (ELISA); format: cell-based, human; settings: Homo sapiens, 24 hours incubation, 8 concentration points, read-out: IC50 (NK92_IL12/IFNγ)
Description: Inhibition of IL-12-induced IFN-γ Secretion in NK92 Cells
The effect of the compounds of the present invention on IFN-γ secretion induced by IL-12 in NK92 cells was evaluated by an enzyme-linked immunosorbent assay (ELISA).
IL-12 receptor is mainly expressed in activated T-cells, NK cells (NK92 is a NK cell line), DC cells, and B-cells. When binding to IL-12, it activates JAK2/TYK2 signal transduction pathway within NK cells and T lymphocytes, thereby inducing secretion of IFN-γ.
The experimental method is generally described below:
The test compound was dissolved in DMSO to 2.5 mM, followed by a serial 4-fold dilution with DMSO to a minimum concentration of […]. Each concentration was further diluted 50-fold with an FBS-free MEMα medium (Gibco, 12561-056).
NK92 cells (Nanjing Cobioer, CBP60980) were cultured in a complete MEMα medium containing 12.5% FBS (Ausbian, VS500T), 12.5% horse serum (Gibco, 16050-122), 0.02 mM folic acid (Sigma, F8758), 0.2 mM inositol (Sigma, 17850), 0.55 mM β-mercaptoethanol (Gibco, 21985-023), 200 U/mL IL-2 (R&D Systems, 202-1L), and 100 U/mL penicillin (Thermofisher, 15140122). When covering 80-90% of the culture container surface, the cells were dispersed and plated on a 96-well plate (Thermofisher, 167425) with 100,000 cells per well (80 μL of the complete MEMα medium without IL-2). The 96-well plate was then incubated overnight in a 37° C./5% CO2 incubator.
After overnight incubation, 10 μL of the test compound and 10 μL of 50 ng/mL IL-12 (R & D Systems, 219-1L) were added to each well and mix gently, and the 96-well plate was incubated in the 37° C./5% CO2 incubator for additional 24 hours. The plate as centrifuged at 800 rpm for 10 minutes at room temperature and 50 μL of the supernatant from each well was transferred to another 96-well plate (Sigma, CLS3695) coated with anti-IFN-γ antibody. The amount of IFN-γ secretion was detected following the instruction from the Human IFN-γ DuoSet ELISA kit (R & D Systems, DY285B). In the experiment, the group with IL-12 and the test compound being replaced with the MEMα medium was the non-stimulated control group (100% inhibition), and the group with IL-12 and 0.2% DMSO was the stimulated group (0% inhibition). The percentage of inhibition on IL-12 induced IFN-γ secretion in NK-92 cells by the test compound was calculated using the following formula: Percentage of inhibition=100−100*(signalcompound−signalnon-stimulated control)/(signalstimulated control−signalnon-stimulated control)
The IC50 value of the test compound was calculated front 8 concentration points using the XLfit software (ID Business Solutions Ltd., UK) by the following formula: Y=Bottom+(Top−Bottom)/(1+10^((log IC50−X)×slope factor))
Where Y was the percentage of inhibition, X was the logarithm of the concentration of the test compound, Bottom was the bottom plateau value of the S-shaped curve, Top was the top plateau value of the S-shaped curve, and slope factor was the slope coefficient of the curve.

[3] = target: T2, human recombinant TYK2 protein (Homo sapiens, UniProt P29597); experiment: TYK2 Inhibition Assay (HTRF kinase assay); format: biochemical; settings: human recombinant TYK2, 11.25 μM ATP substrate solution
T2 construct: purchased Carna Biosciences 08-147
T2 sequence (P29597 871-1187 limits assumed): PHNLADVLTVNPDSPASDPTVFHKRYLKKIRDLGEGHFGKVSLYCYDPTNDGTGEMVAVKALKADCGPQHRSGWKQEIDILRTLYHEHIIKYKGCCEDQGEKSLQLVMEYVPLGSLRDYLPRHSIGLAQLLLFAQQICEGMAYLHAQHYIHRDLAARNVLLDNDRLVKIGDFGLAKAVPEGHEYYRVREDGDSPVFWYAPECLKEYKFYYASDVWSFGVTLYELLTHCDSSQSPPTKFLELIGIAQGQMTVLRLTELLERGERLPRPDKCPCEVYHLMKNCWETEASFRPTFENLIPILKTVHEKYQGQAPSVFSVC
Outline: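 Recombinant human TYK2 was pre-incubated 15 min at room temperature with compound, then reacted for 40 min with biotinylated tyrosine-kinase substrate and ATP (substrate solution 11.25 μM ATP, 0.5 μM substrate; 5 mM MgCl2, 0.01% Brij35). Phosphorylation was read by HTRF 665/620 ratio, normalised to no-enzyme and no-compound controls, and IC50 was fitted from 8 4-fold dilutions.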

T1 sequence (O60674 826-1132 limits assumed): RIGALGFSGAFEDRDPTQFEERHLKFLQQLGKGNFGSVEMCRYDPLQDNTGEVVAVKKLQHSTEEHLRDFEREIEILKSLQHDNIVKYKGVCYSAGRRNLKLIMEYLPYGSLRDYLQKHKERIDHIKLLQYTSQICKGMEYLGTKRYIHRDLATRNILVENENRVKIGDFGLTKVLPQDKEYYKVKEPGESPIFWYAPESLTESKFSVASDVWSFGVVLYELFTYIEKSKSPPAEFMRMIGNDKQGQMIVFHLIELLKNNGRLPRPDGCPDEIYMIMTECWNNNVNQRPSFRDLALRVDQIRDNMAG

Structure (SMILES) | IC50 [1] [nM] | IC50 [2] [nM] | IC50 [3] [nM]
CN1CCC(n2cc(Nc3ncc(Cl)c(N4C[C@]5(C)CN(C(=O)C6CC6)C[C@]5(C)C4)n3)cn2)CC1 [Compound 16, ((3aR,6aS)-5-(5-chloro-2-((1-(1-methylpiperidin-4-yl)-1H-pyrazol-4-yl)amino)pyrimidin-4-yl)-3a,6a-dimethylhexahydropyrrolo[3,4-c]pyrrol-2(1H)-yl)(cyclopropyl)methanone] | 0.9 | 1010 | 1.2
C[C@@H](O)Cn1cc(Nc2ncc(Cl)c(N3C[C@]4(C)CN(C(=O)C5CC5)C[C@]4(C)C3)n2)cn1 [Compound 17, ((3aR,6aS)-5-(5-chloro-2-((1-((R)-2-hydroxypropyl)-1H-pyrazol-4-yl)amino)pyrimidin-4-yl)-3a,6a-dimethylhexahydropyrrolo[3,4-c]pyrrol-2(1H)-yl)(cyclopropyl)methanone] | 3.2 | 1050 | 1.6
C[C@H](O)Cn1cc(Nc2ncc(Cl)c(N3C[C@]4(C)CN(C(=O)C5CC5)C[C@]4(C)C3)n2)cn1 [Compound 18] | 3.5 | 617 | 1.6
CC(=O)N1C[C@@]2(C)CN(c3nc(Nc4cnn(C)c4)ncc3Cl)C[C@@]2(C)C1 [Compound 19, 1-((3aR,6aS)-5-(5-chloro-2-((1-methyl-1H-pyrazol-4-yl)amino)pyrimidin-4-yl)-3a,6a-dimethylhexahydropyrrolo[3,4-c]pyrrol-2(1H)-yl)ethan-1-one] | 8.8 | 713 | 14
Cn1cc(Nc2ncc(Cl)c(N3C[C@]4(C)CN(C(=O)CC#N)C[C@]4(C)C3)n2)cn1 [Compound 20, 3-((3aR,6aS)-5-(5-chloro-2-((1-methyl-1H-pyrazol-4-yl)amino)pyrimidin-4-yl)-3a,6a-dimethylhexahydropyrrolo[3,4-c]pyrrol-2(1H)-yl)-3-oxopropanenittile] | 1.2 | 233 | 0.5
Cn1cc(Nc2ncc(Cl)c(N3C[C@]4(C)CN(C(=O)[C@H]5CC5(F)F)C[C@]4(C)C3)n2)cn1 [Compound 21] | 10 | 490 | 2
Cn1cc(Nc2ncc(Cl)c(N3C[C@]4(C)CN(C(=O)[C@@H]5CC5(F)F)C[C@]4(C)C3)n2)cn1 [Compound 22, ((3aR,6aS)-5-(5-chloro-2-((1-methyl-1H-pyrazol-4-yl)amino)pyrimidin-4-yl)-3a,6a-dimethylhexahydropyrrolo[3,4-c]pyrrol-2(1H)-yl)((S)-2,2-difluorocyclopropyl)methanone] | 1.4 | 305 | 0.8
C[C@@]12CN(C(=O)C3CC3)C[C@]1(C)CN(c1nc(Nc3cn[nH]c3)ncc1Cl)C2 [Compound 23, ((3aR,6aS)-5-(2-((1H-pyrazol-4-yl)amino)-5-chloropyrimidin-4-yl)-3a,6a-dimethylhexahydropyrrolo[3,4-c]pyrrol-2(1H)-yl)(cyclopropyl)methanone] | 3 | 551 | 1
Cn1cc(Nc2ncc(Cl)c(N3C[C@]4(C)CN(c5ccncn5)C[C@]4(C)C3)n2)cn1 [Compound 25, 5-chloro-4-((3aR,6aS)-3a,6a-dimethyl-5-(pyrimidin-4-yl)hexahydropyrrolo[3,4-c]pyrrol-2(1H)-yl)-N-(1-methyl-1H-pyrazol-4-yl)pyrimidin-2-amine] | 0.9 | 399 | 0.3
Cn1cc(Nc2ncc(Cl)c(N3C[C@H]4CN(C(=O)CC#N)C[C@H]4C3)n2)cn1 [Compound 26, 3-((3aR,6aS)-5-(5-chloro-2-((1-methyl-H-pyrazol-4-yl)amino)pyrimidin-4-yl)hexahydropyrrolo[3,4-c]pyrrol-2(1H)-yl)-3-oxopropanenitrile] | 10 | 652 | 6.1
Cn1cc(Nc2ncc(Cl)c(N3C[C@H]4CN(C(=O)[C@@H]5CC5(F)F)C[C@H]4C3)n2)cn1 [Compound 27, ((3aR,6aS)-5-(5-chloro-2-((1-methyl-1H-pyrazol-4-yl)amino)pyrimidin-4-yl)hexahydropyrrolo[3,4-c]pyrrol-2(1H)-yl)((S)-2,2-difluorocyclopropyl)methanone] | 15 | 847 | 16
C[C@@]12CN(C(=O)CC#N)C[C@]1(C)CN(c1nc(Nc3cn[nH]c3)ncc1Cl)C2 [Compound 28, 3-((3aR,6aS)-5-(2-((1H-pyrazol-4-yl)amino)-5-chloropyrimidin-4-yl)-3a,6a-dimethylhexahydropyrrolo[3,4-c]pyrrol-2(1H)-yl)-3-oxopropanenitrile] | 0.4 | 2210 | 0.2
C[C@@]12CN(C(=O)[C@@H]3CC3(F)F)C[C@]1(C)CN(c1nc(Nc3cn[nH]c3)ncc1Cl)C2 [Compound 29, ((3aR,6aS)-5-(2((1H-pyrazol-4-yl)amino)-5-chloropyrimidin-4-yl)-3a,6a-dimethylhexahydropyrrolo[3,4-c]pyrrol-2(1H)-yl)((S)-2,2-difluorocyclopropyl)methanone] | 0.5 | 380 | 0.4
C[C@@]12CN(C(=O)C3CC3)C[C@]1(C)CN(c1nc(Nc3cnn(C(F)F)c3)ncc1Cl)C2 [Compound 30, ((3aR,6aS)-5-(5-chloro-2-((1-(difluoromethyl)-1H-pyrazol-4-yl)amino)pyrimidin-4-yl)-3a,6a-dimethylhexahydropyrrolo[3,4-c]pyrrol-2(1H)-yl)(cyclopropyl)methanone] | 4.6 | 1210 | 1.4
C[C@@]12CN(C(=O)CC#N)C[C@]1(C)CN(c1nc(Nc3cnn(CCO)c3)ncc1Cl)C2 [Compound 31, 3-((3aR,6aS)-5-(5-chloro-2-((1-(2-hydroxyethyl)-1H-pyrazol-4-yl)amino)pyrimidin-4-yl)-3a,6a-dimethylhexahydropyrrolo[3,4-c]pyrrol-2(1H)-yl)-3-oxopropanenitrile] | 0.4 | 2780 | 0.5
C[C@@]12CN(C(=O)C3CC3)C[C@]1(C)CN(c1nc(Nc3cnn(CCO)c3)ncc1Cl)C2 [Compound 32] | 1 | 668 | 0.5
C[C@@]12CN(C(=O)C3CC3)C[C@]1(C)CN(c1nc(Nc3cnn(CC#N)c3)ncc1Cl)C2 [Compound 33, 2-(4-((5-chloro-4-((3aR,6aS)-5-(cyclopropanecarbonyl)-3a,6a-dimethylhexahydropyrrolo[3,4-c]pyrrol-2(1H)-yl)pyrimidin-2-yl)arnino)-1H-pyrazol-1-yl)acetonitrile] | 6.2 | 215 | 2.9
